Reference: patent US10968214B2, “KRas G12C inhibitors” (Eli Lilly and Company, priority 2018, dated 2021)
Like-named read-outs stand apart in the source and are kept apart here.

Tests used:
H2122 = assay: CellTiterGlo Cell Proliferation Assay, H2122; assay type: cell-based; conditions: Homo sapiens, NCI-H2122, KRas G12C, Lung, 96 hr
Procedure: (§1) A panel of tumor cell lines harboring KRas G12C or other KRas mutations are collected (Table 6). All cell lines are from ATCC or other sources indicated.
(§2) Typically cells are cultured in RPMI1640 or Dulbecco's modified Eagle's medium (DMEM, GIBCO) supplemented with 10% FBS (GIBCO, Invitrogen). For 2D culture cells (4×10^3/well) maintained in growth medium described above, are plated onto 96 well tissue culture plates Corning® Cat. 3603) a day before the treatment. For 3D culture 8000 cells/well are seeded onto 96 well ultra-low attachment tissue culture plates (Corning, #3474). The cells are treated compound for 96 hr, and then are analyzed for viability using the CellTiterGlo® Luminescent Cell Viability Assay® (Promega #G7572 for 2D and Promega #G9683 for 3D cultures) according to manufacturer's instructions and an EnVision™ plate reader. Nonlinear regression and sigmoidal dose-response curves are used to calculate the half maximal inhibitory concentration (IC50) with GraphPad Prism 4® software.

H1373 xenograft = assay: Anti-tumor growth activity, H1373 lung xenograft; assay type: in vivo; conditions: 28 Day, negative = regression
H358 = assay: CellTiterGlo Cell Proliferation Assay, H358; assay type: cell-based; conditions: Homo sapiens, NCI-H358, KRas G12C, Lung, 96 hr
Procedure: as §1, §2

[1] = target: T1, active KRas in H2122 xenograft tumors (Homo sapiens, UniProt P01116, G12C); assay: In vivo target inhibition/PD, H2122 xenograft, active KRas; conditions: NCI-H2122, mouse; for inhibition at 10 mg/kg: 10 mg/kg single dose; for inhibition at 30 mg/kg: 30 mg/kg single dose
T1 construct: from tissue; host or cells: H2122 xenograft tumours from nude mice
T1 sequence (P01116 1-188 isoform P01116-2 G12C): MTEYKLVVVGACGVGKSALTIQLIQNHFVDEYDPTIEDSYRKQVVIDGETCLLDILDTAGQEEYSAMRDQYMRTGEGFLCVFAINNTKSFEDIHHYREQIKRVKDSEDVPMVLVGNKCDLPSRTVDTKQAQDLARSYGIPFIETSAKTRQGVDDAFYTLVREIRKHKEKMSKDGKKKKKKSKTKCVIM
Procedure: To evaluate in vivo target inhibition and anti-tumor efficacy of a compound, Human lung cancer cells, H358 or H2122 are implanted into nude mice xenograft tumor models. Either H358 or H2122 cells (10×10^6 in a 1:1 Matrigel® mix, 0.2 mL total volume) are implanted by subcutaneous injection in hind leg of nude female mice (Harlan Laboratories). A total of 5 mice each group are used for efficacy study, and a total of 3-4 mice each group are used for target engagement and PD study. Treatment is initiated with oral administration (gavage) of a test compound or vehicle (20% Captisol®, 25 mM phosphate, pH 2.0 in 0.2 mL volume when the tumor size reaches approximately […]. Tumor growth and body weight are monitored over time to evaluate efficacy and signs of toxicity. Bidimensional measurements of tumors are performed twice a week and tumor volumes are calculated based on mid-axis length and mid-axis width. Tumor volume data are transformed to a log scale to equalize variance across time and treatment groups. The log volume data are analyzed with a two-way repeated measures analysis of variance by time and treatment using the mixed procedures in SAS software (version 8.2). The correlation model for the repeated measures is spatial power. Treated groups are compared to the control group at each time point. The mixed procedure is also used separately for each treatment group to calculate adjusted means and standard errors at each time point. Both analyses account for the autocorrelation within each animal. The adjusted means and standard errors are plotted for each treatment group versus time.
For in vivo target inhibition and PD analysis, tumors are ground by mortar and pestle on dry ice and tumor fragments are added to 800 μL of lysis buffer containing 1% Triton X100, 25 mM Tris pH 7.5, 150 mM NaCl, 1 mM EDTA, and 1 mM EGTA with Halt protease and phosphatase inhibitor cocktail (Thermo Scientific, cat. no. 1861281) in lysing matrix D tubes (MP Biomedical®, cat. no. 6913-500) with one additional large bead (MP Biomedical® ¼″ ceramic sphere bead cat. no. 6540-412) per tube. Tumor fragments are homogenized in a Thermo Bio101® fast prep (FP120) at setting 4 for […] while cold for a total of 2 times. Lysates are spun at 14,000 rpm for 10 min at 4° C. to clarify. Protein estimation is done on the lysate supernatant using a BioRad Dc® protein assay and lysates are diluted in complete lysis/binding buffer from the Ras GTPase Chemi ELISA Kit® (Active Motif, cat. no. 52097). The active KRas ELISA was performed as follows: Glutathione-coated ELISA wells were incubated with diluted RAF1-GST in complete lysis/binding buffer for 1 hr at 4° C. with gentle agitation. Wells are washed 3 times with wash buffer and 100 μg of lysates are added to each well and incubated at RT for 1 hr with mild agitation. The wells are washed an additional 3 times, then primary antibody, diluted in antibody binding buffer, is added to each well. The plates are incubated for 1 hr. The wells are washed 3 more times before adding HRP-conjugated secondary antibody, diluted in antibody binding buffer, to each well. The plates are incubated at RT for 1 hr. ELISA wells are washed 4 times, chemiluminescent reagents is added and then luminescence is read. For pERK Meso Scale Discovery ELISA, 25 μg of protein containing 0.1% SDS is used; for pMEK Meso Scale Discovery ELISA, 50 μg of protein without SDS is used. Meso Scale Discovery Whole Cell Lysate Kits for pERK and pMEK are provided by Meso Scale Discovery.
After a single dose, the tumor samples are harvested at different time points. The tumor lysates are prepared as described above. The inhibition of pERK, pMEK, and active KRas is measured as described above.

HCC827 = assay: CellTiterGlo Cell Proliferation Assay, HCC827; assay type: cell-based; conditions: Homo sapiens, KRas wild type, lung, 96 hr
Procedure: as §1, §2

UM-UC-3 = assay: CellTiterGlo Cell Proliferation Assay, UM-UC-3; assay type: cell-based; conditions: Homo sapiens, UMUC3, KRas G12C, Bladder, 96 hr
Procedure: as §1, §2

HCC44 xenograft = assay: Anti-tumor growth activity, HCC44 lung xenograft; assay type: in vivo; conditions: 28 Day, negative = regression
[2] = read-out: IC50 (μM) in 2 D cell proliferation
[3] = read-out: IC50 (μM) in 3 D spheroid cell proliferation
[4] = 2 hr, read-out: % Inhibition Active KRas
[5] = 4 hr, read-out: % Inhibition Active KRas
[6] = 8 hr, read-out: % Inhibition Active KRas
[7] = 12 hr, read-out: % Inhibition Active KRas
[8] = 24 hr, read-out: % Inhibition Active KRas

Compound: C=CC(=O)N1CCN(c2ncnc3c(F)c(-c4ccc(F)c5sc(N)nc45)c(Cl)cc23)CC1 [Example 1, 1-{4-[7-(2-Amino-7-fluoro-1,3-benzothiazol-4-yl)-6-chloro-8-fluoroquinazolin-4-yl]piperazin-1-yl}prop-2-en-1-one]
- IC50 (H2122; [2]): 0.187 µM
- IC50 (H2122; [3]): 0.017 µM
- Tumor Growth Inhibition (%) or Regression (−%) (H1373 xenograft; 15 mg/kg BID): −60%
- Tumor Growth Inhibition (%) or Regression (−%) (H1373 xenograft; 30 mg/kg BID): −71.6%
- Tumor Growth Inhibition (%) or Regression (−%) (H1373 xenograft; 30 mg/kg QD): −52.4%
- IC50 (H358; [2]): 0.041 µM
- IC50 (H358; [3]): 0.026 µM
- inhibition at 10 mg/kg [1, 4]: 25.8%
- inhibition at 10 mg/kg [1, 5]: 32.3%
- inhibition at 10 mg/kg [1, 6]: 34.7%
- inhibition at 10 mg/kg [1, 7]: 37.1%
- inhibition at 10 mg/kg [1, 8]: 16.7%
- inhibition at 10 mg/kg ([1]; from 2-12 hr, read-out: active KRas inhibition): 26 to 37%
- inhibition at 30 mg/kg [1, 4]: 57.5%
- inhibition at 30 mg/kg [1, 5]: 78.8%
- inhibition at 30 mg/kg [1, 6]: 67%
- inhibition at 30 mg/kg [1, 7]: 46.5%
- inhibition at 30 mg/kg [1, 8]: 26.1%
- inhibition at 30 mg/kg ([1]; from 2-[…], read-out: active KRas inhibition): 26 to 79%
- inhibition at 100 mg/kg ([1]; 100 mg/kg single dose, 4 hr): 90.6%
- IC50 (HCC827; [2]): 18.9 µM
- IC50 (HCC827; [3]): 4.63 µM
- IC50 (UM-UC-3; [2]): 0.124 µM
- IC50 (UM-UC-3; [3]): 0.075 µM
- Tumor Growth Inhibition (%) or Regression (−%) (HCC44 xenograft; 15 mg/kg BID): 93.4%
- Tumor Growth Inhibition (%) or Regression (−%) (HCC44 xenograft; 30 mg/kg BID): −16.5%
- Tumor Growth Inhibition (%) or Regression (−%) (HCC44 xenograft; 30 mg/kg QD): 85.4%
